# Results taken from patent publication US7598382B2, “Aryl substituted imidazoquinolines” (Coley Pharmaceutical Group, Inc., priority 2002, dated 2009).
# Counter-ions that a name gives are not always drawn.
row,Structure (SMILES),melting point [°C]
1,"CCOCc1nc2c(N)nc3cc(-c4cccc(CS(N)(=O)=O)c4)ccc3c2n1CC1CCOCC1 [Example 480, {3-[4-Amino-2-ethoxymethyl-1-(tetrahydropyran-4-ylmethyl)-1H-imidazo[4,5-c]quinolin-7-yl]phenyl}methanesulfonamide]",254 to 255
2,"CC(C)(O)Cn1cnc2c(N)nc3cc(Cc4ccccc4)ccc3c21 [Example 431, 1-(4-Amino-7-benzyl-1H-imidazo[4,5-c]quinolin-1-yl)-2-methylpropan-2-ol]",228 to 229
3,"CCOCc1nc2c(N)nc3cc(CCc4ccc(C(F)(F)F)cc4)ccc3c2n1CC(C)C [Example 117, 2-Ethoxymethyl-1-(2-methylpropyl)-7-{2-[(trifluoromethyl)phenyl]ethyl}-1H-imidazo[4,5-c]quinolin-4-amine]",175.5 to 178
4,"CCOCc1nc2c(N)nc3ccc(C=Cc4ccccc4)cc3c2n1CC(C)(C)O [Example 147, 1-(4-Amino-2-ethoxymethyl-8-styryl-1H-imidazo[4,5-c]quinolin-1-yl)-2-methylpropan-2-ol]",217 to 218
5,"CCCCc1nc2c(N)nc3cc(-c4ccccc4OCCC)ccc3c2n1CC(C)C [Example 6, 2-Butyl-1-isobutyl-7-(2-propoxyphenyl)-1H-imidazo[4,5-c]quinolin-4-amine]",174.5 to 176
6,"CCOCc1nc2c(N)nc3cc(-c4ccncc4)ccc3c2n1CC(C)C [Example 116, 2-Ethoxymethyl-1-(2-methylpropyl)-(7-pyridin-4-yl)-1H-imidazo[4,5-c]quinolin-4-amine]",211 to 213
7,"CCCc1nc2c(N)nc3cc(-c4cccnc4)ccc3c2n1CC1CCN(S(C)(=O)=O)CC1 (as salt: HCl) (hydrate or solvate) [Example 411, 1-{[1-(Methanesulfonyl)piperidin-4-yl]methyl}-2-propyl-7-(pyridin-3-yl)-1H-imidazo[4,5-c]quinolin-4-amine]",> 250
8,"CCOCc1nc2c(N)nc3cc(-c4cccc(C(=O)N5CCOCC5)c4)ccc3c2n1CC1CCOCC1 (hydrate or solvate) [Example 477, {3-[4-Amino-2-ethoxymethyl-1-(tetrahydropyran-4-ylmethyl)-1H-imidazo[4,5-c]quinolin-7-yl]phenyl}morpholin-4-ylmethanone]",125 to 128
9,"CC(C)Cn1cnc2c(N)nc3cccc(-c4ccccc4)c3c21 [Example 482, 1-(2-Methylpropyl)-9-phenyl-1H-imidazo[4,5-c]quinolin-4-amine]",263 to 265
10,"CC(C)Cn1cnc2c(N)nc3cc(C=Cc4ccccc4)ccc3c21 [Example 427, 1-(2-Methylpropyl)-7-styryl-1H-imidazo[4,5-c]quinolin-4-amine]",257 to 258
11,"COCCc1nc2c(N)nc3cc(-c4cccnc4)ccc3c2n1CCCN1CCCC1=O [Example 183, 1-{3-[4-Amino-2-(2-methoxyethyl)-7-(pyridin-3-yl)-1H-imidazo[4,5-c]quinolin-1-yl]propyl}pyrrolidin-2-one]",218 to 221
12,"CCOCc1nc2c(N)nc3cc(-c4cccnc4)ccc3c2n1CC1CCCCN1 (stereo not drawn) (as salt: hydrochloride) [Example 491, 2-Ethoxymethyl-1-(piperidin-2-ylmethyl)-7-(pyridin-3-yl)-1H-imidazo[4,5-c]quinolin-4-amine trihydrochloride]",> 250
13,"Nc1nc2cc(-c3ccccc3)ccc2c2c1ncn2CCCN1CCCC1=O [Example 204, 1-[3-(4-Amino-7-phenyl-1H-imidazo[4,5-c]quinolin-1-yl)propyl]pyrrolidin-2-one]",201 to 204
14,"CCOCc1nc2c(N)nc3cc(-c4ccncc4)ccc3c2n1CCCOC [Example 165, 2-Ethoxymethyl-1-(3-methoxypropyl)-7-(pyridin-4-yl)-1H-imidazo[4,5-c]quinolin-4-amine]",225 to 226
15,"COCCc1nc2c(N)nc3cc(-c4cncc(CO)c4)ccc3c2n1CC(C)C [Example 146, {5-[4-Amino-2-(2-methoxyethyl)-1-(2-methylpropyl)-1H-imidazo[4,5-c]quinolin-7-yl]pyridin-3-yl}methanol]",202 to 204
16,"CCc1nc2c(N)nc3ccc(-c4ccccc4)cc3c2n1CC(C)C [Example 16, 2-Ethyl-1-isobutyl-8-phenyl-1H-imidazo[4,5-c]quinolin-4-amine]",233 to 235
17,"CC(C)Cn1cnc2c(N)nc3cc(CCc4ccccc4)ccc3c21 [Example 430, 1-(2-Methylpropyl)-7-phenethyl-1H-imidazo[4,5-c]quinolin-4-amine]",172 to 173
18,"CCCc1nc2c(N)nc3cc(CCc4ccc(OC)cc4)ccc3c2n1CC(C)C (as salt: HCl) [Example 459, 7-[2-(4-Methoxyphenyl)ethyl]-1-(2-methylpropyl)-2-propyl-1H-imidazo[4,5-c]quinolin-4-amine]",> 250
19,"CCOCc1nc2c(N)nc3cc(-c4cccnc4)ccc3c2n1CCCCS(N)(=O)=O [Example 368, 4-[4-Amino-2-ethoxymethyl-7-(pyridin-3-yl)-1H-imidazo[4,5-c]quinolin-1-yl]butane-1-sulfonamide]",250 to 251.5
20,"CCOCc1nc2c(N)nc3cc(-c4cccnc4)ccc3c2n1CC1CCCCC1 [Example 438, 1-Cyclohexylmethyl-2-ethoxymethyl-7-(pyridin-3-yl)-1H-imidazo[4,5-c]quinolin-4-amine]",146 to 148
21,"CCOCc1nc2c(N)nc3cc(-c4cccnc4)ccc3c2n1CC1CCN(C(=O)OC(C)(C)C)CC1 [Example 176, tert-Butyl 4-{[4-amino-2-ethoxymethyl-7-(pyridin-3-yl)-1H-imidazo[4,5-c]quinolin-1-yl]methyl}piperidine-1-carboxylate]",197 to 198
